Where a chain is given by its changes, count along the chain named. Like-named read-outs stand apart in the source and are kept apart here.

Assay [1] has as its target T1, human tyrosinase (hTYR^WT) (Homo sapiens, UniProt P14679).
T1 construct: gene TYR
T1 sequence (P14679 19-469): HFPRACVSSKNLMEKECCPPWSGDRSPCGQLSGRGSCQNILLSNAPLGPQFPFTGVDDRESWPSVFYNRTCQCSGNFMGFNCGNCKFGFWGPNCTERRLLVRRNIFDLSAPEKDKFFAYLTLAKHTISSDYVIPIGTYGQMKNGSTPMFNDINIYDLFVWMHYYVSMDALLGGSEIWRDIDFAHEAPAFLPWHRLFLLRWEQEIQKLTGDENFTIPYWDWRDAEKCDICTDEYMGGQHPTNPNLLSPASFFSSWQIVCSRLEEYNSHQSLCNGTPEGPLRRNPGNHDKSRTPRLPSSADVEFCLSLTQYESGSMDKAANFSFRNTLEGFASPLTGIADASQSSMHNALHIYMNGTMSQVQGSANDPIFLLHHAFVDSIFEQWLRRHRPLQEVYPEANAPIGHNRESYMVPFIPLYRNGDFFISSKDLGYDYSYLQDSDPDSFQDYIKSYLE
The assay can be described thus: biochemical.

In assay [2] the target is T1, human tyrosinase (hTYR^WT). Nature of the assay: activation of diphenol oxidase and monophenolase activity of purified enzyme; urea denaturation. Format: biochemical.
Assay [3] deals with T2, human tyrosinase (hTYR^P406L) (Homo sapiens, UniProt P14679, P406L).
T2 construct: gene TYR; recombinant intramelanosomal domain, P406L variant, His-tag
T2 sequence (P14679 19-469 P406L): T1 sequence (P14679 19-469) with P388L
Nature of the assay: activation of diphenol oxidase and monophenolase activity of purified enzyme. Format: biochemical.

Consider `O=c1cc(-c2ccc(O)c(O)c2)oc2ccccc12` [3’,4’-dihydroxyflavone], for which the half-maximal inhibitory concentration (IC50) in assay [1] (read-out: IC50) is 9.22 µM. Still for that read-out and setting: under `Oc1ccc(Nc2ccccc2)cc1` [4-anilinophenol] stands 3.2 µM. Still for that read-out and setting: under `Nc1nc2nc[nH]c2c(=S)[nH]1` [6-thioguanine] stands 540 µM.

In the case of `Cc1c(N)c(=O)n(-c2ccccc2)n1C` [ampyrone, 4-Amino-2,3-dimethyl-1-phenyl-3-pyrazol-5-one], the figures for the EC50 in assay [2] and in assay [3] were 670 µM and 3.57 mM, respectively.

Regarding `COc1ccc(-c2cc(=S)ss2)cc1` [anethole trithione], the IC50 in assay [1] (read-out: IC50) is 1.45 µM.

With `CN(C)c1ccc(N=NS(=O)(=O)O)cc1` [fenaminosulf], the IC50 in assay [1] (read-out: IC50) was determined as 8.12 µM. `Oc1ccc(C2=Cc3ccc(O)cc3OC2)cc1` [idronoxil] displayed an IC50 in assay [1] of 29.1 µM.

(Values after article PMC13502167, “Ampyrone is a direct agonist of human tyrosinase and a potential therapeutic for hypopigmentation disorders” (JCI Insight, 2026).)
